Data reported in patent publication US20080145424A1, “Sustained release L-arginine formulations and methods of manufacture and use” (Enos Phramaceuticals, Inc., priority 2002, published 2008).

Tested on: total infarct volume
Assay: Dose optimization of combination of simvastatin and L-arginine, infarct volume in mice
Type: in vivo
Settings: mice injected with varying levels of simvastatin and L-arginine; predicted by statistical analysis

## CCC(C)(C)C(=O)O[C@H]1C[C@@H](C)C=C2C=C[C@H](C)[C@H](CC[C@@H]3C[C@@H](O)CC(=O)O3)[C@H]21 [simvastatin]
  optimal range of the combination: 1.2 to 1.4 mg/kg
